Marks after values point to notes of the source that are not given here.
Experiments:
cervical carcinoma cells = conditions: read-out: CE50 dose; cited from earlier work
[1] = test system: blood of patients with leukemia (combined group); test: Hemogram of blood of patients with leukemia (combined group) after exposure; format: cell-based
Description: (§3) The effect of compounds F1 and F2 was studied on biological material (blood) of patients with hematological malignancies (leukemia), as well as for individual nosologies, in particular, patients with leukemia (combined group) (n=224), T-ALL (n=84), B-ALL (n=100), ALL (n=100), AML (n= 98), AML (n=94) and AML (n= 98) were studied. A total of 798 blood samples from patients with leukemia were examined.
(§4) The drugs Cytosar (Alexan) (Ebewe Pharma, Austria) and doxorubicin (Naprod, Mumbai, India) recommended by WHO for the treatment of the above oncohematological diseases were used as comparison drugs.
(§5) 5 ml of venous blood from sick and conditionally healthy individuals were collected into Vacutainer tubes with the addition of EDTA (Himedia, India).
(§6) The resulting blood was divided into aliquots of 1 ml and 10 µl (10 µg/ml) of the studied drugs (cytosar, doxorubicin, F1 and F2) were added to each tube.

[2] = test system: blood of patients with AML; test: Hemogram of blood of patients with AML after exposure (Example 14, Table 11); format: cell-based; conditions: AML (Table 11); 10 µg/ml; 3 hours, 37.0°C
Description: as §3, §4, §5, §6

[3] = test system: blood of patients with T-ALL; test: Hemogram of blood of patients with T-ALL after exposure; format: cell-based
Description: as §3, §4, §5, §6

[4] = test system: blood of patients with ALL; test: Hemogram of blood of patients with ALL after exposure; format: cell-based
Procedure: as §3, §5, §6

[5] = test system: blood of patients with AML; test: Hemogram of blood of patients with AML after exposure (Example 13, Table 10; also OMML); format: cell-based
Procedure: as §4, §5, §6

[6] = test system: CCRF-CEM (CCL-119) (T-lymphoblastic leukemia); test: MTT cytotoxicity on CCRF-CEM cells; format: cell-based; conditions: Homo sapiens, 24 hours
Procedure: (§1) The cytotoxic properties of the compounds were determined in vitro using the MTT method in 96-well plates (Costar, USA). […] Rat liver hepatocytes were obtained according to the method, human blood mononuclear cells - according to [23]. Fibroblast cells were obtained according to the method of [24] with some modifications. Cell cultures were subcultured into 96-well plates according to the method of [21] by adding 100 μl of nutrient medium. The CCRF-CEM suspension culture was poured into a tube, centrifuged at 800 rpm for 10 minutes, and the supernatant was discarded. […] Data obtained in 3 independent experiments were expressed as the mean value for each concentration ± standard error of the mean, relative to the control values (cells without test compounds). The cytotoxic effect of each of the studied compounds was compared with the effect of the cytostatic Cisplatin-Naprod (India), containing cisplatin as an active component. Table 1: IC50 μM value for test compounds

Rat liver hepatocytes = test: MTT cytotoxicity on hepatocytes; format: cell-based; conditions: Rattus norvegicus, Hepatocyte, 24 hours
Procedure: as §1

[7] = test system: blood of patients with B-ALL; test: Hemogram of blood of patients with B-ALL after exposure; format: cell-based
Procedure: A total of 798 blood samples from patients with leukemia were examined.
as §4, §5, §6

[8] = test system: blood of patients with AML; test: Hemogram of blood of patients with AML after exposure (Example 12, Table 9); format: cell-based
Procedure: as §4, §5, §6

fibroblasts = test: MTT cytotoxicity on fibroblasts; format: cell-based; conditions: Fibroblast, 24 hours
Procedure: as §1

outbred white mice = test: Acute toxicity study (LD50)
Procedure: (§2) We studied the acute toxicity of compound F1 in vivo. The experiments were carried out on outbred white mice of both sexes weighing 18-20 g (24 pcs.). The animals were divided into groups of 12 mice each. The compound was dissolved in DMSO and then adjusted to the desired concentration with 0.9% NaCl solution and administered intraperitoneally and subcutaneously in a dose range from 5.0 to 200.0 mg/kg. […] The maximum relative error of the applied dose was no more than 5%.
as §2, with “F2” for “F1”, “brought” for “adjusted”, “subcutaneously to animals” for “subcutaneously”, “administered” for “applied”

[9] = Acute toxicity study (LD50); conditions: mouse, in vivo, ip
Procedure: as §2
as §2, with “F2” for “F1”, “brought” for “adjusted”, “subcutaneously to animals” for “subcutaneously”, “administered” for “applied”

lung cancer H460 = conditions: cited from earlier work
[10] = AML (Example 13), compared with doxorubicin
[11] = AML (Table 10), 10 µg/ml, 3 hours, 37.0°C
[12] = AML (Table 9), 10 µg/ml, 3 hours, 37.0°C

CS(=O)(=O)N1CCC(Nc2n[nH]c3c2nc(-c2c(F)cccc2F)c2cc(C(N)=O)ccc23)CC1 [5-(2,6-difluorophenyl)-3-{[1-(methylsulfonyl)piperidin-4-yl]amino}-1H-pyrazolo[4,3-c]isoquinoline-7-carboxamide]
EC50 (cervical carcinoma cells): 0.259 µM

COc1cc2c(cc1OC)C(c1cc3c(cc1Cl)OCO3)NCC2 (stereo not shown) [Compound F2, 1-(2'-chloro-4',5'-methylenedioxyphenyl)-6,7-dimethoxy-1,2,3,4-tetrahydroisoquinoline]
Band (s/n) neutrophils ([1]; 10 µg/ml, 3 hours, 37.0°C): 1,6±0,2 % | Blasts ([1]; 10 µg/ml, 3 hours, 37.0°C): 65,2±2,8 % | Destroyed cells ([1]; 10 µg/ml, 3 hours, 37.0°C): 12,9±1,8 % | Eosinophils ([1]; 10 µg/ml, 3 hours, 37.0°C): 1,6±0,3 % | Lymphocytes ([1]; 10 µg/ml, 3 hours, 37.0°C): 12,3±1,2% | Monocytes ([1]; 10 µg/ml, 3 hours, 37.0°C): 4,7±0,7 % | Myelocytes ([1]; 10 µg/ml, 3 hours, 37.0°C): 2,5±0,6 % | Promyelocytes ([1]; 10 µg/ml, 3 hours, 37.0°C): 3,8±2,1% | Segmented (s/i) neutrophils ([1]; 10 µg/ml, 3 hours, 37.0°C): 5,5±0,9% | increase in the level of destroyed cells ([1]; compared to the control group): 2.3 fold | decrease in the content of blasts ([1]; versus Control group): 14.6% | Band (s/n) neutrophils [2]: 1,2±0,3% | Blasts [2]: 59,1±3,3 % | Destroyed cells [2]: 19,3±1,7 % | Eosinophils [2]: 0,5±0,2% | Lymphocytes [2]: 8,2±1,1% | Monocytes [2]: 1,8±0,3% | Myelocytes [2]: 0,4±0,1% | Promyelocytes [2]: 0,0±0,0% | Segmented (s/i) neutrophils [2]: 9,6±2,5% | Band (s/n) neutrophils ([3]; 10 µg/ml, 3 hours, 37.0°C): 0,8±0,2% | Blasts ([3]; 10 µg/ml, 3 hours, 37.0°C): 68,2±2,2 % | Destroyed cells ([3]; 10 µg/ml, 3 hours, 37.0°C): 16,1±1,3 A % | Eosinophils ([3]; 10 µg/ml, 3 hours, 37.0°C): 0,0±0,0% | Lymphocytes ([3]; 10 µg/ml, 3 hours, 37.0°C): 6,7±0,6*^ # % | Monocytes ([3]; 10 µg/ml, 3 hours, 37.0°C): 1,2±0,2*^ % | Myelocytes ([3]; 10 µg/ml, 3 hours, 37.0°C): 0,0±0,0% | Promyelocytes ([3]; 10 µg/ml, 3 hours, 37.0°C): 0,0±0,000% | Segmented (s/i) neutrophils ([3]; 10 µg/ml, 3 hours, 37.0°C): 7,0±1,0*^ % | increase in the percentage of destroyed cells ([3]; comparator not stated): 1.8 times | decrease in lymphocytes ([3]; compared with doxorubicin): 1.7 times | decrease in monocytes ([3]; compared with doxorubicin): 1.9 times | increase in the proportion of mature and differentiated neutrophils ([3]; comparison with the cytosar group): 2.3 times | Band (s/n) neutrophils ([4]; 10 µg/ml, 3 hours, 37.0°C): 0,7±0,2% | Blasts ([4]; 10 µg/ml, 3 hours, 37.0°C): 67,9±1,6*^ % | Destroyed cells ([4]; 10 µg/ml, 3 hours, 37.0°C): 13,2±1,4*^ # % | Eosinophils ([4]; 10 µg/ml, 3 hours, 37.0°C): 0,2±0,1% | Lymphocytes ([4]; 10 µg/ml, 3 hours, 37.0°C): 13,4±1,3% | Monocytes ([4]; 10 µg/ml, 3 hours, 37.0°C): 1,1±0,3% | Myelocytes ([4]; 10 µg/ml, 3 hours, 37.0°C): 0,0±0,0% | Promyelocytes ([4]; 10 µg/ml, 3 hours, 37.0°C): 0,0±0,0% | Segmented (s/i) neutrophils ([4]; 10 µg/ml, 3 hours, 37.0°C): 3,7±0,7 % | percentage of destroyed cells higher ([4]; compared to cytosar): 2.8 times | difference in the level of blast cells ([4]; compared with cytosar): 1.16 times | increase in the proportion of destroyed cells ([4]; in comparison with doxorubicin): 2.75 times | decrease in the percentage of myelocytes ([5]; AML (Example 13)): 2.1 times | decrease in the proportion of blasts ([5]; AML (Example 13)): 11.7% | increase in the proportion of destroyed cells ([5]; AML (Example 13)): 2.6 times | increase in the proportion of neutrophils ([5]; AML (Example 13)): 2.3 times | proportion of destroyed cells higher ([5]; AML (Example 13), compared with Cytosar): 2.1 times | percentage of lymphocytes lower [5, 10]: 1.9 times | percentage of neutrophils lower [5, 10]: 1.7 times | percentage of myelocytes lower ([5]; AML (Example 13), relative to cytosar): 5.0 times | Band (s/n) neutrophils [5, 11]: 2,9±0,4% | Blasts [5, 11]: 51,9±2,2% | Destroyed cells [5, 11]: 16,6±1,6*^ % | Eosinophils [5, 11]: 0,5±0,2% | Lymphocytes [5, 11]: 3,2±0,8 % | Monocytes [5, 11]: 3,2±0,4 % | Myelocytes [5, 11]: 3,2±0,5 % | Promyelocytes [5, 11]: 0,0±0,0% | Segmented (s/i) neutrophils [5, 11]: 18,6±1,7 % | IC50 [6]: 21 µM | IC50 (Rat liver hepatocytes): > 100 µM | decrease in the content of blasts [7]: 1.27 times | increase in the proportion of destroyed cells [7]: 4.9 times | Band (s/n) neutrophils ([7]; 10 µg/ml, 3 hours, 37.0°C): 1,7±0,4% | Blasts ([7]; 10 µg/ml, 3 hours, 37.0°C): 53,9±2,6 % | Destroyed cells ([7]; 10 µg/ml, 3 hours, 37.0°C): 15,2±1,8*^ % | Eosinophils ([7]; 10 µg/ml, 3 hours, 37.0°C): 0,0±0,0% | Lymphocytes ([7]; 10 µg/ml, 3 hours, 37.0°C): 14,6±2,0% | Monocytes ([7]; 10 µg/ml, 3 hours, 37.0°C): 2,8±0,9% | Myelocytes ([7]; 10 µg/ml, 3 hours, 37.0°C): 0,8±0,2% | Promyelocytes ([7]; 10 µg/ml, 3 hours, 37.0°C): 0,0±0,0% | Segmented (s/i) neutrophils ([7]; 10 µg/ml, 3 hours, 37.0°C): 11,1±2,0 % | decrease in the percentage of blasts ([8]; AML (Example 12)): 1.2 times | increase in the level of destroyed cells ([8]; AML (Example 12)): 4.0 times | increase in the proportion of mature differentiated neutrophils ([8]; AML (Example 12)): 2.0 times | Band (s/n) neutrophils [8, 12]: 0,9±0,4% | Blasts [8, 12]: 65,6±2,4 % | Destroyed cells [8, 12]: 8,2±1,1% | Eosinophils [8, 12]: 0,8±0,5% | Lymphocytes [8, 12]: 11,5±1,8% | Monocytes [8, 12]: 4,4±0,9% | Myelocytes [8, 12]: 1,3±0,7% | Promyelocytes [8, 12]: 0,4±0,2% | Segmented (s/i) neutrophils [8, 12]: 7,0±1,1 % | IC50 (fibroblasts): > 100 µM | toxicity class (outbred white mice; classified from LD50): toxicity class 3 (moderately toxic) | LD50 value, times higher than cytosar (cytarabine) (outbred white mice; relative to cytosar): 52 times | LD50 value, times higher than doxorubicin (outbred white mice; relative to doxorubicin): 20 times | LD50 at 168 h [9]: 220 ± 15.6 mg/kg

C/C=C(/C)C(=O)OC[C@H]1C2=C(C[C@H]3[C@H]4C5=C(C[C@@H]([C@H](C#N)N13)N4C)C(=O)C(C)=C(OC)C5=O)C(=O)C(C)=C(OC)C2=O [renieramycin M]
IC50 (lung cancer H460): 40 µM
